Reference: ChEMBL document CHEMBL5360526, “Discovery of BET specific bromodomain inhibitors with a novel scaffold” (Bioorg Med Chem, 2022)

Columns and labels:
[1] = target: Bromodomain and PHD finger-containing protein 3 (Homo sapiens) (UniProt Q9ULD4); test: Inhibition of BRPF3 (unknown origin) assessed as remaining activity
[2] = Microsomal stability in mouse liver microsomes assessed as parent compound remaining measured after 30 mins; assay type: ADME, Microsome; settings: read-out: Stability
[3] = target: Histone acetyltransferase p300 (Homo sapiens) (UniProt Q09472); test: Inhibition of EP300 (unknown origin) assessed as remaining activity
[4] = target: Bromodomain-containing protein 7 (Homo sapiens) (UniProt Q9NPI1); test: Inhibition of BRD7 (unknown origin) assessed as remaining activity
[5] = target: SWI/SNF-related matrix-associated actin-dependent regulator of chromatin subfamily A member 4 (Homo sapiens) (UniProt P51532); test: Inhibition of SMARCA4 (unknown origin) assessed as remaining activity
[6] = target: Bromodomain-containing protein 2 (Homo sapiens) (UniProt P25440); test: Inhibition of BRD2 BD2 (unknown origin) assessed as remaining activity
Chain of Bromodomain-containing protein 2 (Homo sapiens) (P25440 whole entry, looked up): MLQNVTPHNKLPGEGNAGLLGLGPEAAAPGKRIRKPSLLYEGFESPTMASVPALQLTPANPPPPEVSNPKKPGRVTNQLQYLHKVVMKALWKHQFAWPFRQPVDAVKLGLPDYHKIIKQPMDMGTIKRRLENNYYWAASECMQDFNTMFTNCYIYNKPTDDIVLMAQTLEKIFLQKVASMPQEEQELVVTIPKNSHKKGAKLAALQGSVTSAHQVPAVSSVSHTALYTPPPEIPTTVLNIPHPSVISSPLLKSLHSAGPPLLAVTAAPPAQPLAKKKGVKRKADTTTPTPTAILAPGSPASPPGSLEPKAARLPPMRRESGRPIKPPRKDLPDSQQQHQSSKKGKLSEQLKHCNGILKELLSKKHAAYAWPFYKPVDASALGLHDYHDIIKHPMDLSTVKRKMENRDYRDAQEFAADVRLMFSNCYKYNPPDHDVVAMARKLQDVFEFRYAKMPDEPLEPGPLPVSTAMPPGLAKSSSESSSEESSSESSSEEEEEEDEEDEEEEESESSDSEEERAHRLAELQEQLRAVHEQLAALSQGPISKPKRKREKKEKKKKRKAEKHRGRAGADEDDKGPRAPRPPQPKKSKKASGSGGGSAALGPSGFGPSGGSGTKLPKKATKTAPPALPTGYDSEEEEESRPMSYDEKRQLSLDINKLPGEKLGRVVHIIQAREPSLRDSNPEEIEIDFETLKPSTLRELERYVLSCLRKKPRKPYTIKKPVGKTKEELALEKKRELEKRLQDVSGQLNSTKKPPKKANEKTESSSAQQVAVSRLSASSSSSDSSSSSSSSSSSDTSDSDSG

[7] = Microsomal stability in human liver microsomes assessed as parent compound remaining measured after 30 mins; assay type: ADME, Microsome; settings: read-out: Stability
[8] = target: Bromodomain-containing protein 2 (Homo sapiens) (UniProt P25440); test: Inhibition of BRD2 BD1 (unknown origin) assessed as remaining activity
[9] = target: Bromodomain-containing protein 1 (Homo sapiens) (UniProt O95696); test: Inhibition of BRD1 (unknown origin) assessed as remaining activity
[10] = target: Bromodomain and WD repeat-containing protein 1 (Homo sapiens) (UniProt Q9NSI6); test: Inhibition of WDR9 BD2 (unknown origin) assessed as remaining activity
[11] = target: T1, Bromodomain-containing protein 4 (Homo sapiens, UniProt O60885); test: Inhibition of N-terminal GST-tagged/C-terminal 6His-tagged BRD4 BD1 (47 to 170 residues) (unknown origin) expressed in Escherichia coli BL21 (DE3) using SGRGK(Ac)GGK(Ac)GLGK(Ac) GGAK(Ac)RHRK-biotinylated peptide as substrate incubated for 60 mins by alpha screen assay
[12] = target: Bromodomain testis-specific protein (Homo sapiens) (UniProt Q58F21); test: Inhibition of BRDT BD1 (unknown origin) assessed as remaining activity
[13] = target: E3 ubiquitin-protein ligase TRIM33 (Homo sapiens) (UniProt Q9UPN9); test: Inhibition of TRIM33 (unknown origin) assessed as remaining activity
[14] = target: SWI/SNF-related matrix-associated actin-dependent regulator of chromatin subfamily A member 2 (Homo sapiens) (UniProt P51531); test: Inhibition of SMARCA2 (unknown origin) assessed as remaining activity
[15] = target: Bromodomain testis-specific protein (Homo sapiens) (UniProt Q58F21); test: Inhibition of BRDT BD2 (unknown origin) assessed as remaining activity
[16] = target: T1, Bromodomain-containing protein 4; test: Inhibition of BRD4 BD1 (unknown origin) assessed as remaining activity
[17] = target: Bromodomain-containing protein 9 (Homo sapiens) (UniProt Q9H8M2); test: Inhibition of BRD9 (unknown origin) assessed as remaining activity
Chain of Bromodomain-containing protein 9 (Homo sapiens) (Q9H8M2 whole entry): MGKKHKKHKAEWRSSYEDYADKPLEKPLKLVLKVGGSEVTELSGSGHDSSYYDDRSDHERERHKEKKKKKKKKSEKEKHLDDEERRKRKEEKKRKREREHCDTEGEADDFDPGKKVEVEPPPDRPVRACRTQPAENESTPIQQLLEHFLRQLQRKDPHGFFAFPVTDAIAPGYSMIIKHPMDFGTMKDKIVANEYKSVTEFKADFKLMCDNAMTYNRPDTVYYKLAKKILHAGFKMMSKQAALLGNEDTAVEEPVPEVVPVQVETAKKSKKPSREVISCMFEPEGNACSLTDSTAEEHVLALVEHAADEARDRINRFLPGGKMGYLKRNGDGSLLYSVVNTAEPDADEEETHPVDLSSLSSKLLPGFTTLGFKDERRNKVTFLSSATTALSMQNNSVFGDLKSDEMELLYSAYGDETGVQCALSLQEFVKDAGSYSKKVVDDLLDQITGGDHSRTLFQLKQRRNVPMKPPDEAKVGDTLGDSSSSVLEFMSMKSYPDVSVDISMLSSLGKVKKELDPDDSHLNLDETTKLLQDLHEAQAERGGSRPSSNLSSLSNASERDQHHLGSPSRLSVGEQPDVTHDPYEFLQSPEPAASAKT

[18] = target: Peregrin (Homo sapiens) (UniProt P55201); test: Inhibition of BRPF1 (unknown origin) assessed as remaining activity
[19] = target: Transcription initiation factor TFIID subunit 1-like (Homo sapiens) (UniProt Q8IZX4); test: Inhibition of TAF1L BD2 (unknown origin) assessed as remaining activity
[20] = target: Transcription intermediary factor 1-alpha (Homo sapiens) (UniProt O15164); test: Inhibition of TRIM24 (unknown origin) assessed as remaining activity
[21] = target: ATPase family AAA domain-containing protein 2 (Homo sapiens) (UniProt Q6PL18); test: Inhibition of ATAD2A (unknown origin) assessed as remaining activity
[22] = target: Transcription initiation factor TFIID subunit 1 (Homo sapiens) (UniProt P21675); test: Inhibition of TAF1 BD2 (unknown origin) assessed as remaining activity
[23] = target: Bromodomain adjacent to zinc finger domain protein 2B (Homo sapiens) (UniProt Q9UIF8); test: Inhibition of BAZ2B (unknown origin) assessed as remaining activity
[24] = target: Chromatin remodeling regulator CECR2 (Homo sapiens) (UniProt Q9BXF3); test: Inhibition of CECR2 (unknown origin) assessed as remaining activity
[25] = target: Nucleosome-remodeling factor subunit BPTF (Homo sapiens) (UniProt Q12830); test: Inhibition of FALZ (unknown origin) assessed as remaining activity
[26] = target: Protein polybromo-1 (Homo sapiens) (UniProt Q86U86); test: Inhibition of PBRM1 BD2 (unknown origin) assessed as remaining activity
Chain of Protein polybromo-1 (Homo sapiens) (Q86U86 whole entry): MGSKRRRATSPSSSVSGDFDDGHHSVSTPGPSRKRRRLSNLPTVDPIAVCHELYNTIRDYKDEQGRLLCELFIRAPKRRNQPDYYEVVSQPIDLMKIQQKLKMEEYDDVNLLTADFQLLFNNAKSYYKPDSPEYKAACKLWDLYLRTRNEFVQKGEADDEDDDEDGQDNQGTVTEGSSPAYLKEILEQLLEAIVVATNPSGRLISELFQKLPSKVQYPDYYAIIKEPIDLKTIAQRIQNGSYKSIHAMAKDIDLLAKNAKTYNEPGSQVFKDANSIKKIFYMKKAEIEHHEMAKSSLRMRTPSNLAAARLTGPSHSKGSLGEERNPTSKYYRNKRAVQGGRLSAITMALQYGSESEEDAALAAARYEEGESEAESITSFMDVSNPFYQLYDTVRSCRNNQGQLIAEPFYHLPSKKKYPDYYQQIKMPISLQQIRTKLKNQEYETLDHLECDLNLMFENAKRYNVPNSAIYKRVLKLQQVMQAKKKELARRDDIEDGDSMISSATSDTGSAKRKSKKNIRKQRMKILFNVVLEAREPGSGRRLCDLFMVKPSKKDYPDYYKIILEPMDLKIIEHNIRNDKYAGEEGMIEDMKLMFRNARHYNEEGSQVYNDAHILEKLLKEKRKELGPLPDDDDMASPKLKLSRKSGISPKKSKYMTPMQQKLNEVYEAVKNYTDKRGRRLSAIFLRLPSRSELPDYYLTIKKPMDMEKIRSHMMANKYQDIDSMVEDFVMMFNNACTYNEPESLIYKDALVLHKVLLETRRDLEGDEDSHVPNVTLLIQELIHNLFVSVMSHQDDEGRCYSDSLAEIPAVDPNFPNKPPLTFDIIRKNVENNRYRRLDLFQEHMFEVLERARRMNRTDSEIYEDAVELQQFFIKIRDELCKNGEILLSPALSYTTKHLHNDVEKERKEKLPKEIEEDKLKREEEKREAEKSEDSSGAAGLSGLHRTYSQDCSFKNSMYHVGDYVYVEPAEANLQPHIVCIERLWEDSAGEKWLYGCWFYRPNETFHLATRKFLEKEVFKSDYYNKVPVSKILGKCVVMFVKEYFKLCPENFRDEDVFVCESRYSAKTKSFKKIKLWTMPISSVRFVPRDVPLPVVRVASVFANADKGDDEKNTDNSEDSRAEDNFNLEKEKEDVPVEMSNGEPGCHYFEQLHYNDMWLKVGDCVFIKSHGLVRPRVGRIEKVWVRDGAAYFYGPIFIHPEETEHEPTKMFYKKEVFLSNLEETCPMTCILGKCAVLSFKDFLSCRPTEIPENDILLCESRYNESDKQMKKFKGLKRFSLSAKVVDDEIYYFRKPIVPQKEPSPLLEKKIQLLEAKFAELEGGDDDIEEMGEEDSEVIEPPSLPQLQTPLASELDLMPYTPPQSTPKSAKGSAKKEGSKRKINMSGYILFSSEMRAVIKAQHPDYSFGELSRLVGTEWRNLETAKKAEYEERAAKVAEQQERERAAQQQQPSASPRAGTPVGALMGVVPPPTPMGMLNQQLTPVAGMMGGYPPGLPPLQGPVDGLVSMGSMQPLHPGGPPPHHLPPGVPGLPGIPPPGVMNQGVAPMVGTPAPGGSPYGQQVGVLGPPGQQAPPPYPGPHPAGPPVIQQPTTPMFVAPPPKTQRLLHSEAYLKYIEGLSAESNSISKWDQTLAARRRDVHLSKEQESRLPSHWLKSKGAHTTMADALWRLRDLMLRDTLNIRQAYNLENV

[27] = target: Bromodomain-containing protein 3 (Homo sapiens) (UniProt Q15059); test: Inhibition of BRD3 BD1 (unknown origin) assessed as remaining activity
Chain of Bromodomain-containing protein 3 (Homo sapiens) (Q15059 2-726 limits assumed): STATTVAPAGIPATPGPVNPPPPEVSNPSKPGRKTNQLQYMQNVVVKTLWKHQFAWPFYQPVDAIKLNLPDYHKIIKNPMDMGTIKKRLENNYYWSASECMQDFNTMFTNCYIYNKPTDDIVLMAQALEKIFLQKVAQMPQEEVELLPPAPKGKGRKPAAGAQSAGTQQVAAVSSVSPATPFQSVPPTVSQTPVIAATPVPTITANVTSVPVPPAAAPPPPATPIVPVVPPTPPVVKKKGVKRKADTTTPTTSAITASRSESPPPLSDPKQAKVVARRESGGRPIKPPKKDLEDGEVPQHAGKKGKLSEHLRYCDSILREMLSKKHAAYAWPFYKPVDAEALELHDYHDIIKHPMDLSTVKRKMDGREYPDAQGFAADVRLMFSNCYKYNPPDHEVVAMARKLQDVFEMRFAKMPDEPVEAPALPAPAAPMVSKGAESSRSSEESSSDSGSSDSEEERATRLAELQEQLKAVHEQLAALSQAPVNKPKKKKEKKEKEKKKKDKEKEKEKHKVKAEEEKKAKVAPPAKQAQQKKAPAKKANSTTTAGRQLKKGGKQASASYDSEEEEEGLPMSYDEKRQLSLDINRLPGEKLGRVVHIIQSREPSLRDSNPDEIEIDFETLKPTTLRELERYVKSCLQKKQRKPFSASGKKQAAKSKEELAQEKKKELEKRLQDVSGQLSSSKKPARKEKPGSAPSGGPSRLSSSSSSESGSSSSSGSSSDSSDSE

[28] = target: Bromodomain-containing protein 3 (Homo sapiens) (UniProt Q15059); test: Inhibition of BRD3 BD2 (unknown origin) assessed as remaining activity
[29] = target: T1, Bromodomain-containing protein 4; test: Inhibition of BRD4 BD2 (unknown origin) using SGRGK(Ac)GGK(Ac)GLGK(Ac) GGAK(Ac)RHRK-biotinylated peptide as substrate incubated for 60 mins by alpha screen assay
[30] = target: Bromodomain adjacent to zinc finger domain protein 2A (Homo sapiens) (UniProt Q9UIF9); test: Inhibition of BAZ2A (unknown origin) assessed as remaining activity
[31] = target: ATPase family AAA domain-containing protein 2B (Homo sapiens) (UniProt Q9ULI0); test: Inhibition of ATAD2B (unknown origin) assessed as remaining activity
[32] = target: T1, Bromodomain-containing protein 4; test: Inhibition of BRD4 BD2 (unknown origin) assessed as remaining activity
[33] = target: Histone acetyltransferase KAT2B (Homo sapiens) (UniProt Q92831); test: Inhibition of PCAF (unknown origin) assessed as remaining activity
Chain of Histone acetyltransferase KAT2B (Homo sapiens) (Q92831 whole entry, looked up): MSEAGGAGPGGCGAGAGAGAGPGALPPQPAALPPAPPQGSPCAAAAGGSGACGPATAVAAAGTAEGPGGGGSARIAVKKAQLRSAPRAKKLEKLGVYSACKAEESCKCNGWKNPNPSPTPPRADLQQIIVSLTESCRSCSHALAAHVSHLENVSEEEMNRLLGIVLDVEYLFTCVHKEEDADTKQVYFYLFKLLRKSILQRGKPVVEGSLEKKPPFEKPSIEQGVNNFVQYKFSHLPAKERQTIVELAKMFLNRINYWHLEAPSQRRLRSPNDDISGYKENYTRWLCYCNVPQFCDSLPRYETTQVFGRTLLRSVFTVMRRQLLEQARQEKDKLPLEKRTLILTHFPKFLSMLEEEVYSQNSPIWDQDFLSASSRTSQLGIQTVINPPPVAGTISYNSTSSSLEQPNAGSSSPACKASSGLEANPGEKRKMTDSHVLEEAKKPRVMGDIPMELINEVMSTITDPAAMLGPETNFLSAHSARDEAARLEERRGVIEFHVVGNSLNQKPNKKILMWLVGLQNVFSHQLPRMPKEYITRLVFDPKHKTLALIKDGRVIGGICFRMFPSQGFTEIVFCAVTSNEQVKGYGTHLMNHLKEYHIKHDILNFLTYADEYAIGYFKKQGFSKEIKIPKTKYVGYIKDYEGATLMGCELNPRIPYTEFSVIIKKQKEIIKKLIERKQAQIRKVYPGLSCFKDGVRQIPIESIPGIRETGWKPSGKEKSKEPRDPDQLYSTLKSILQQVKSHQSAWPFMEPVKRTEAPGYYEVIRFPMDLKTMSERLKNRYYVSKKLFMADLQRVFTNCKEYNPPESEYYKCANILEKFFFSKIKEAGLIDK

[34] = target: Protein polybromo-1 (Homo sapiens) (UniProt Q86U86); test: Inhibition of PBRM1 BD5 (unknown origin) assessed as remaining activity
[35] = target: CREB-binding protein (Homo sapiens) (UniProt Q92793); test: Inhibition of CREBBP (unknown origin) assessed as remaining activity
[36] = target: Histone acetyltransferase KAT2A (Homo sapiens) (UniProt Q92830); test: Inhibition of GCN5L2 (unknown origin) assessed as remaining activity

COCC(C)Nc1ccc(NS(=O)(=O)N(C)C)c(Nc2ccc3[nH]nnc3c2)n1 (stereo unspecified)
Activity [1]: 71% | remaining at 0.5 h [2]: 28% | Activity [3]: 82% | Activity [4]: 67% | Activity [5]: 75% | Activity [6]: 19% | remaining at 0.5 h [7]: 32.9% | Activity [8]: 0% | Activity [9]: 42% | Activity [10]: 44% | IC50 [11]: 2.86 µM | Activity [12]: 2.7% | Activity [13]: 92% | Activity [14]: 62% | Activity [15]: 32% | Activity [16]: 0.45% | Activity [17]: 64% | Activity [18]: 78% | Activity [19]: 86% | Activity [20]: 98% | Activity [21]: 66% | Activity [22]: 31% | Activity [23]: 84% | Activity [24]: 73% | Activity [25]: 77% | Activity [26]: 44% | Activity [27]: 0.95% | Activity [28]: 35% | IC50 [29]: 8.01 µM | Activity [30]: 82% | Activity [31]: 55% | Activity [32]: 22% | Activity [33]: 88% | Activity [34]: 73% | Activity [35]: 88% | Activity [36]: 88%
